Measurements taken from patent publication US20090239217A1, “STEM-LIKE CELLS IN BONE SARCOMAS” (University of Florida Research Foundation, Inc., priority 2008, published 2009).

Tests used:
Oct-4/GFP+ OS521 cells = assay: Tumor formation in NOD/SCID mice after in vitro pretreatment of Oct-4/GFP-enriched OS521 cells with differentiation inducers; type: in vivo; conditions: 3×10^4 cells per mouse
Source text: It was hypothesized that if the Oct-4/GFP+ tumorigenic cells reflected a stem-like phenotype, their tumorigenic ability might also be inhibited by forced cellular differentiation. Therefore prior to delivery into the NOD/SCID mouse model, the Oct-4/GFP-enriched cell populations were pretreated in vitro with three different compounds known to be potent inducers of differentiation: ATRA, leukemia inhibitory factor (LIF), and recombinant bone morphogenetic protein (BMP) 4/7 heterodimer and evaluated their effect of each on tumorigenicity.
Following delivery of Oct-4/GFP transfected OS521 cells into NOD/SCID mice, cells isolated from the resultant tumors were sorted by FACS and the GFP-enriched population was plated in 12 well plates and treated with either LIF (10^4 to 0.5×10^2 U/ml), ATRA (1 μM), or recombinant BMP 4/7 (100 ng/ml) for 72 hours. Untreated cells were used as controls. Following the incubation period, 5 NOD/SCID mice per group were injected at 3×10^4 cells per mouse with cells from each treated pool and the mice were monitored for subsequent tumor formation. […] The BMPs are members of the TGF-β superfamily and are known to be potent agents of cellular differentiation, particularly with respect to chondro- and osteoinduction of mesenchymal progenitor cells. BMP 4/7 appears to inhibit the tumorigenesis of the Oct-4/GFP+ OS521 cells after transient induction.

osteosarcoma cultures = assay: Tumor generation by osteosarcoma cells cultured with BMP4/7; type: in vivo; conditions: cells cultured in DMEM with 75-100 ng/ml BMP4/7; 10 weeks post-treatment
Method: (§1) Cells were cultured in DMEM and 75-100 ng/ml of BMP4/7 (control cells were not cultured with BMP4/7).

Oct-4/EGFP expression = Oct-4/EGFP expression in osteosarcoma cultures treated in vitro; type: cell-based; conditions: osteosarcoma cultures in DMEM with 75-100 ng/ml BMP4/7; FIG. 13
Method: as §1

Compound: CC1=C(/C=C/C(C)=C/C=C/C(C)=C/C(=O)O)C(C)(C)CCC1 [ATRA, reference compound]
- tumor formation (Oct-4/GFP+ OS521 cells; GFP-enriched OS521 cells treated with ATRA 1 μM for 72 hours): tumor formation by 5 weeks

Compound: leukemia inhibitory factor [LIF]
- tumor formation (Oct-4/GFP+ OS521 cells; GFP-enriched OS521 cells treated with LIF 10^4 to 0.5×10^2 U/ml for 72 hours): tumor formation by 5 weeks

Compound: recombinant bone morphogenetic protein (BMP) 4/7 heterodimer [BMP 4/7]
- tumor generation by treated cells (osteosarcoma cultures): have not yet generated tumors
- tumor formation (Oct-4/GFP+ OS521 cells; GFP-enriched OS521 cells treated with recombinant BMP 4/7 100 ng/ml for 72 hours, followed twelve weeks): none of the mice in the BMP 4/7 treated group developed tumors by twelve weeks
- Oct-4/EGFP expression (Oct-4/EGFP expression): affects Oct-4/EGFP expression
